Experimental data: US20040023853A1, “Antagonistic peptides of prostaglandin E2 receptor subtype EP4” (priority 2002, published 2004)
In brackets after ≈: the same amount, converted by molar mass. Non-standard residues stand in square brackets, D forms with d. Residues, ends and D or L forms follow the SMILES beside them. Bip = N[C@@H](Cc1ccc(-c2ccccc2)cc1)C(=O)O; dBip = N[C@H](Cc1ccc(-c2ccccc2)cc1)C(=O)O

Experiments:
[1] = Solubility of the peptides in water; assay type: physicochemical; conditions: for solubility: determined in water
Procedure: Several peptides, based on the structure of 213.15 (SEQ ID NO: 1), were synthesized using F-moc chemistry and the solid phase Merrifield peptide method. The purity of the trifluoroacetate salts of these peptides was assessed by HPLC and mass spectroscopy. The general synthesis methods will be better understood by referring to the following treatises: “Solid phase peptide synthesis”, Stewart & Young, W. H. Freeman Co. San Francisco, 1969; “The proteins”, Erikson and Merrifield, Vol. 2. (ed. Neurath & Hill), Academic Press, New York. 1976.

[2] = system: rat model of ischemic nephropathy; experiment: Rat model of ischemic nephropathy (bilateral renal artery occlusion): GFR, urine flow, renal plasma flow, BUN/creatinine, histology; assay type: in vivo, Sprague-Dawley rats; conditions: 213.29 1 mg/kg iv bolus
Procedure: Bilateral clamping of the renal arteries for 30-60 minutes results in the […] of the kidneys and associated sequelae such as a dramatic decrease in glomerular filtration rate, urine output and tubular cell death. This model reproduces some important consequences of oligouric renal failure in humans. The efficacy of various 213.15 derivatives in reversing the renal damage was measured.
Sprague-Dawley rats (250-300 g) were anesthetized and the jugular vein was canulated for infusion with the peptide or with saline. In addition, the carotid artery was canulated to measure the arterial blood pressure with a pressure transducer (Gould) and to collect blood samples. The urinary bladder was canulated to collect urine. After catheterization, an infusion (1.6 ml/hr) of a mixture of [^3H] inulin (8 μCi/hr), [^14C] aminohippuric acid (0.8 μCi/hr) and anesthetics (ketamine and xylazine; 9:1 w:w; 0.095 ml/ml) was started. The animals were allowed to stabilize for a further 40 minutes. Two urine samples were collected over 10 minute periods, (from 40 to 50 minutes, and from 50 to 60 minutes) to assess the stability of the basal GFR. Blood samples were collected at 45 and 55 minutes respectively. The left and right renal arteries were then clamped for a period of 60 minutes to induce an acute renal ischemia. After the ischemic period, the animals were treated with peptides, 213.19-213.30, (1 mg/kg iv bolus) or with saline via the jugular vein. Blood and urine samples were then collected every 20 minutes for an additional period of 2 hours. Glomerular filtration rates (GFR) and urine flow rates, (measured by the [^3H] inulin method) as well as renal plasma flow (measured by the [^14C] aminohippuric acid method), were determined at different times and averaged for a 60 minute (20-80 minutes following the drug administration) period.
The efficacy of fenoldopam and 213.29, in improving kidney function in the rat model of ischemic nephropathy (described in Example 2) was compared. […]

[3] = fenoldopam 0.6 μg/kg iv bolus then 0.6 μg/kg/h

## CC(C)C[C@@H](NC(=O)[C@@H](C)NC(=O)[C@@H](CCC(=O)O)NC(=O)[C@@H](Cc1ccc(O)cc1)NC(=O)[C@@H](CCC(=O)O)NC(=O)[C@@H](CO)NC(=O)[C@H](NC(=O)[C@H](N)Cc1ccc(-c2ccccc2)cc1)[C@H](C)O)C(=O)O [Peptide 213.15, (bip)tseyeal] (H-[dBip][dT][dS][dE][dY][dE][dA][dL]-OH; N-terminus and C-terminus assumed)
[1]
  solubility (in words): poor solubility
  solubility: 0.2 mg/mL (≈ 0.193 mM)

## CC(C)C[C@@H](NC(=O)[C@@H](C)NC(=O)[C@@H](CCC(=O)O)NC(=O)[C@@H](Cc1ccc(O)cc1)NC(=O)[C@@H](CCC(=O)O)NC(=O)[C@@H](CO)NC(=O)[C@H](NC(=O)[C@H](N)Cc1ccc(-c2ccccc2)cc1)[C@H](C)O)C(=O)N[C@@H](CCCCN)C(=O)O [Peptide 213.19, (bip)tseyealK] (H-[dBip][dT][dS][dE][dY][dE][dA][dL]K-OH; N-terminus and C-terminus assumed)
[1]
  solubility: 2.8 mg/mL (≈ 2.41 mM)

## CC(C)C[C@@H](NC(=O)CNC(=O)[C@@H](CCC(=O)O)NC(=O)[C@@H](Cc1ccc(O)cc1)NC(=O)[C@@H](CCC(=O)O)NC(=O)[C@@H](CO)NC(=O)[C@H](NC(=O)[C@H](N)Cc1ccc(-c2ccccc2)cc1)[C@H](C)O)C(=O)N[C@@H](CCCCN)C(=O)O [Peptide 213.20, (bip)tseyeglK] (H-[dBip][dT][dS][dE][dY][dE]G[dL]K-OH; N-terminus and C-terminus assumed)
[1]
  solubility: 1.15 mg/mL (≈ 1 mM)

## CC(C)C[C@@H](NC(=O)[C@@H](C)NC(=O)[C@@H](CCC(=O)O)NC(=O)[C@@H](Cc1ccc(O)cc1)NC(=O)[C@@H](CCC(=O)O)NC(=O)[C@@H](CO)NC(=O)[C@H](NC(=O)[C@H](N)Cc1ccc(-c2ccccc2)cc1)[C@H](C)O)C(=O)N[C@@H](CCCCN)C(=O)N[C@@H](CCCCN)C(=O)O [Peptide 213.21, (bip)tseyealKK] (H-[dBip][dT][dS][dE][dY][dE][dA][dL]KK-OH; N-terminus and C-terminus assumed)
[1]
  solubility: 24.5 mg/mL (≈ 19 mM)

## CC(C)C[C@@H](NC(=O)CNC(=O)[C@@H](CCC(=O)O)NC(=O)[C@@H](Cc1ccc(O)cc1)NC(=O)[C@@H](CCC(=O)O)NC(=O)[C@@H](CO)NC(=O)[C@H](NC(=O)[C@H](N)Cc1ccc(-c2ccccc2)cc1)[C@H](C)O)C(=O)N[C@@H](CCCCN)C(=O)N[C@@H](CCCCN)C(=O)O [Peptide 213.22, (bip)tseyeglKK] (H-[dBip][dT][dS][dE][dY][dE]G[dL]KK-OH; N-terminus and C-terminus assumed)
[1]
  solubility: 24.5 mg/mL (≈ 19.2 mM)

## CC(C)C[C@@H](NC(=O)[C@@H](CO)NC(=O)[C@@H](CCC(=O)O)NC(=O)[C@@H](Cc1ccc(O)cc1)NC(=O)[C@@H](CCC(=O)O)NC(=O)[C@@H](CO)NC(=O)[C@H](NC(=O)[C@H](N)Cc1ccc(-c2ccccc2)cc1)[C@H](C)O)C(=O)N[C@@H](CCCCN)C(=O)O [Peptide 213.23, (bip)tseyeslK] (H-[dBip][dT][dS][dE][dY][dE][dS][dL]K-OH; N-terminus and C-terminus assumed)
[1]
  solubility: 13 mg/mL (≈ 11 mM)

## CC(C)C[C@@H](NC(=O)[C@@H](CO)NC(=O)[C@@H](CCC(=O)O)NC(=O)[C@@H](Cc1ccc(O)cc1)NC(=O)[C@@H](CCC(=O)O)NC(=O)[C@@H](CO)NC(=O)[C@H](NC(=O)[C@H](N)Cc1ccc(-c2ccccc2)cc1)[C@H](C)O)C(=O)N[C@@H](CCCCN)C(=O)N[C@@H](CCCCN)C(=O)O [Peptide 213.24, (bip)tseyeslKK] (H-[dBip][dT][dS][dE][dY][dE][dS][dL]KK-OH; N-terminus and C-terminus assumed)
[1]
  solubility: 23.5 mg/mL (≈ 18 mM)

## C[C@H](O)[C@@H](NC(=O)[C@H](N)Cc1ccc(-c2ccccc2)cc1)C(=O)N[C@H](CO)C(=O)N[C@H](CCC(=O)O)C(=O)N[C@H](Cc1ccc(O)cc1)C(=O)N[C@H](CCC(=O)O)C(=O)N[C@H](C)C(=O)N[C@@H](CCCCN)C(=O)O [Peptide 213.25, (bip)tseyeaK] (H-[dBip][dT][dS][dE][dY][dE][dA]K-OH; N-terminus and C-terminus assumed)
[1]
  solubility: 6 mg/mL (≈ 5.71 mM)

## C[C@H](O)[C@@H](NC(=O)[C@H](N)Cc1ccc(-c2ccccc2)cc1)C(=O)N[C@H](CO)C(=O)N[C@H](CCC(=O)O)C(=O)N[C@H](Cc1ccc(O)cc1)C(=O)N[C@H](CCC(=O)O)C(=O)N[C@H](CO)C(=O)N[C@@H](CCCCN)C(=O)O [Peptide 213.26, (bip)tseyesK] (H-[dBip][dT][dS][dE][dY][dE][dS]K-OH; N-terminus and C-terminus assumed)
[1]
  solubility: 8 mg/mL (≈ 7.5 mM)

## CC(C)C[C@@H](NC(=O)[C@@H](C)NC(=O)[C@@H](CCC(=O)O)NC(=O)[C@@H](Cc1ccc(O)cc1)NC(=O)[C@@H](CCC(=O)O)NC(=O)[C@@H](CO)NC(=O)[C@H](NC(=O)[C@@H](N)Cc1ccc(-c2ccccc2)cc1)[C@H](C)O)C(=O)N[C@@H](CCCCN)C(=O)N[C@@H](CCCCN)C(=O)O [Peptide 213.27, (Bip)tseyealKK] (H-[Bip][dT][dS][dE][dY][dE][dA][dL]KK-OH; N-terminus and C-terminus assumed)
[1]
  solubility: 23 mg/mL (≈ 17.8 mM)

## CC(C)C[C@H](NC(=O)[C@@H](C)NC(=O)[C@@H](CCC(=O)O)NC(=O)[C@@H](Cc1ccc(O)cc1)NC(=O)[C@@H](CCC(=O)O)NC(=O)[C@@H](CO)NC(=O)[C@H](NC(=O)[C@H](N)Cc1ccc(-c2ccccc2)cc1)[C@H](C)O)C(=O)N[C@@H](CCCCN)C(=O)N[C@@H](CCCCN)C(=O)O [Peptide 213.28, (bip)tseyeaLKK] (H-[dBip][dT][dS][dE][dY][dE][dA]LKK-OH; N-terminus and C-terminus assumed)
[1]
  solubility: 20 mg/mL (≈ 15.5 mM)

## CC(C)C[C@H](NC(=O)[C@@H](C)NC(=O)[C@@H](CCC(=O)O)NC(=O)[C@@H](Cc1ccc(O)cc1)NC(=O)[C@@H](CCC(=O)O)NC(=O)[C@@H](CO)NC(=O)[C@H](NC(=O)[C@@H](N)Cc1ccc(-c2ccccc2)cc1)[C@H](C)O)C(=O)N[C@@H](CCCCN)C(=O)N[C@@H](CCCCN)C(=O)O [Peptide 213.29, (Bip)tseyeaLKK] (H-[Bip][dT][dS][dE][dY][dE][dA]LKK-OH; N-terminus and C-terminus assumed)
[1]
  solubility: 15.6 mg/mL (≈ 12.1 mM)

## CC(C)C[C@@H](NC(=O)[C@@H](C)NC(=O)[C@@H](CCC(=O)O)NC(=O)[C@@H](Cc1ccc(O)cc1)NC(=O)[C@@H](CCC(=O)O)NC(=O)[C@@H](CO)NC(=O)[C@H](NC(=O)[C@H](N)Cc1ccc(-c2ccccc2)cc1)[C@H](C)O)C(=O)NCC(=O)N[C@@H](CCCCN)C(=O)N[C@@H](CCCCN)C(=O)O [Peptide 213.30, (bip)tseyealGKK] (H-[dBip][dT][dS][dE][dY][dE][dA][dL]GKK-OH; N-terminus and C-terminus assumed)
[1]
  solubility: 16 mg/mL (≈ 11.9 mM)

## Oc1ccc(C2CNCCc3c2cc(O)c(O)c3Cl)cc1 (centres unmarked) [fenoldopam, Fenoldopam]
[2]; [3]
  renal perfusion and GFR: only 213.29 was able to improve renal perfusion and GFR significantly
  urine output: increased urine output to a similar extent
[2]; after 72 hours, fenoldopam 0.6 μg/kg bolus then 0.6 μg/kg/h
  blood urea nitrogen (BUN) and serum creatinine levels: equally efficacious in reducing BUN and creatinine levels
